Laboratory results reported in patent US6448011B1, “DNA encoding human alpha 1 adrenergic receptors and uses thereof” (Synaptic Pharmaceutical Corporation, priority 1992, dated 2002).
Counter-ions that a name gives are not always drawn.

system: human prostate tissue; assay: Inhibition of phenylephrine-induced contraction of human prostate tissue strips; conditions: dose-ratio method
Method: Methods: Prostatic adenomas were obtained at the time of surgery from patients with symptomatic BPH. These were cut into longitudinal strips of 15 mm long and 2-4 mm wide, and suspended in 5 ml organ baths containing Krebs buffer (pH 7.4). The baths were maintained at 37° C. and continuously oxygenated with 5% CO2 and 95% O2. Isometric tension was measured with a Grass Instrument FT03 force transducer interfaced with a computer.
Tissue strips were contracted with varying concentrations of phenylephrine after incubating for 20 minutes in the absence and presence of at least three different concentrations of antagonist. Dose-response curves for phenylephrine were constructed, and the antagonist potency (pA2) was estimated by the dose-ratio method. […] This control was necessary to account for losses of antagonist due to adsorption to the tissue bath and/or metabolism during the time the antagonists were equilibrated with the prostate tissue.

Row | Molecule | Human Prostate (pA)
1 | 4-fluoro-4-(8-fluoro-1,3,4,5-tetrahydro-2H-pyrido[4,3-b]indol-2-yl)butyrophenone hydrochloride [Compound A-30360] | 8.72
2 | COc1ccccc1N1CCN(CCCNc2c(C)c(=O)n(C)c(=O)n2C)CC1 [5-Methyl Urapidil, 5-methylurapidil] | 8.38
3 | O=C(CCCN1CCC(NC(=O)c2ccccc2)CC1)c1ccc(Cl)cc1 [Compound 7, 1-[3-(4-chlorobenzoyl)propyl]-4-benzamidopiperidine] | 7.63
4 | O=C(CCCN1CCC(NC(=O)c2ccccc2)CC1)c1ccccc1 [Compound 9, 1-(3-benzoylpropyl)-4-benzamidopiperidine] | 7.41
5 | O=C(NC1CCN(CCc2c[nH]c3ccccc23)CC1)c1ccccc1 [Indoramin] | 7.86
6 | COc1cc2nc(N3CCN(C(=O)c4ccco4)CC3)nc(N)c2cc1OC [Prazosin] | 9.08
7 | C=Cc1sc2ccc(Cl)c3c2c1CN(C)CC3 [SKF-104856, 7-Chloro-2-ethenyl-3,4,5,6-tetrahdyro-4-methylthieno[4,3,2-ef][3]benzazepine] | 7.66
8 | COc1cc2nc(N3CCN(C(=O)C4CCCO4)CC3)nc(N)c2cc1OC (stereo not shown) [Terazosin, 2[4-(Tetrahydro-2-furoyl)piperazinyl]-4-amino-6,7-dimethoxyquinazoline hydrochloride] | 7.30

system: not given; assay: not given; conditions: not given

Row | Molecule | melting point
9 | O=C(CCCN1CCC(NC(=O)c2ccccc2)CC1)c1ccc(Cl)cc1 (as salt: HCl) [Compound 7, 1-[3-(4-chlorobenzoyl)propyl]-4-benzamidopiperidine] | 243 to 244 °C

molecular target: T1, α1c receptor (Bos taurus, UniProt P18130); assay: not given; conditions: expressed α1c receptor; cited from earlier work
T1 sequence (P18130 1-466): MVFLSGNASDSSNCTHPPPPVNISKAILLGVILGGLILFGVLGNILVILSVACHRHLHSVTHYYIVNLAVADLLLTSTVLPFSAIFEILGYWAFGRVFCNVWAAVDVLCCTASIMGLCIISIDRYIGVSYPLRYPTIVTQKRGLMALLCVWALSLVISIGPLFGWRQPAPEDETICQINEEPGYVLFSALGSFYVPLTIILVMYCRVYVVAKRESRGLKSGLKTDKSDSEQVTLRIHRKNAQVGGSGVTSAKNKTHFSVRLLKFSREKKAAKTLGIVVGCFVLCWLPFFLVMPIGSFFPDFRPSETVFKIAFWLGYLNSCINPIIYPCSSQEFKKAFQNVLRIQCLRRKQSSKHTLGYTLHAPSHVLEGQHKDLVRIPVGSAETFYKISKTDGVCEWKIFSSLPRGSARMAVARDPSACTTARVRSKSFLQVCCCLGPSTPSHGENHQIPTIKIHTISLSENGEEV

Row | Molecule | fold higher affinity than the α1b-receptor
10 | Cc1ccc(N(CC2=NCCN2)c2cccc(O)c2)cc1 [phentolamine] | 30 fold
